Laboratory results from patent US20180055844A1 (Celgene Corporation, priority 2011, published 2018).
pEC50, pIC50: −log10 of the molar value. Values joined by “and” are separate entries in the source; they are usually repeats but may differ in a detail not shown here. Equal values may be shown once. Read-outs that look alike come from different tables or passages of the source.

What was measured:
HIF-1α = HIF-1α protein expression in solid tumor cell lines; format: cell-based; settings: 1 μM
Oral pharmacokinetics = format: in vivo; settings: Cyno monkey
[1] = system: MM cell lines U266, 100-1 and 1K-2; experiment: Proliferation of CRBN-sensitive MM cell lines; format: cell-based
[2] = Stability in human plasma; format: in vitro ADME; settings: read-out: t1/2 in human plasma
HepG2 = experiment: Invasion of solid tumor cells; format: cell-based; settings: Homo sapiens; HepG2 (VEGF), hepatocellular
[3] = Oral administration for 7 consecutive days in rat; set-up: species or system male CD-IGS rat; settings: in vivo
Procedure: The NOAEL was determined to be 1000 mg/kg/day.

HEP-G2 = experiment: Solid tumor cell colony formation; format: cell-based; settings: Homo sapiens, HepG2
TNFα = experiment: LPS-induced TNFα; format: cell-based
SF-539 = experiment: Invasion of solid tumor cells; format: cell-based; settings: Homo sapiens; SF-539 (PDGF), glioblastoma
T cells = experiment: Anti-CD3-stimulated human T cell assay, cytokine production; format: cell-based
Procedure: T cells were isolated from buffy coat by negative selection using the RosetteSep® T Cell Enrichment Cocktail. The manufacturer's procedures were followed accordingly. All 96-well plates were pre-coated with 3 μg/ml anti-human CD3 antibody in 100 μl 1×PBS for 4 hours at 37° C. The plates were washed three times with RPMI-1640 Complete Media prior to the T cell assay. T cells were then plated in CD3 pre-coated plates at a density of 2.5×10^5 cells/well in 180 μl RPMI-1640 Complete Media. The cells were treated with 20 μl 10× titrated compounds at 10, 1, 0.1, 0.01, 0.001, 0.0001 and 0.00001 μM. Final DMSO concentrations were 0.25%. The plates were incubated for 48 hours at 37° C., 5% CO2. After 48 hours, the supernatants were harvested and tested by a multi-plex cytometric bead array (CBA) assay for the following cytokines/chemokines: IL-2, IL-3, IL-5, IL-10, IL-13, IL-15, IL-17a, GM-CSF, G-SCF, IFN-γ, TNF-α and RANTES. The CBA plates were analyzed on the Luminex IS100 instrument. […] All 96-well plates were pre-coated with 3 μg/mL anti-human CD3 antibody in 100 μL 1×PBS for 4 hours at 37° C. The plates were washed 3 times with RPMI-1640 Complete Media prior to the T cell assay. The T cells were then plated in anti-CD3-pre-coated plates at a density of 2.5×10^5 cells/well in 180 μL RPMI-1640 Complete Media. The cells were treated with 20 μL 10× titrated Celgene compounds at 10, 1, 0.1, 0.01, 0.001, 0.0001, and 0.00001 μM in duplicate. The final DMSO concentrations were 0.25%. The plates were incubated for 48 hours at 37° C., 5% CO2. After 48 hours, the supernatants were harvested and tested by a multiplex cytometric bead array (CBA) assay for the following cytokines/chemokines: IL-2, IL-3, IL-5, IL-10, IL-13, IL-15, IL-17A, GM-CSF, G-CSF, IFN-γ, TNF-α, and RANTES. The CBA plates were analyzed on the Luminex IS100 instrument.

[4] = system: human umbilical vascular endothelial cell (HUVEC); experiment: HUVEC invasion; format: cell-based
B cell = B cell proliferation; format: cell-based
DoHH2 = experiment: Cell cycle analysis; format: cell-based
Procedure: (§1) Cells were treated with DMSO or an amount of a compound provided herein for 48 hours. Propidium iodide staining for cell cycle was performed using CycleTEST PLUS (Becton Dickinson) according to manufacturer's protocol. Following staining, cells were analyzed by a FACSCalibur flow cytometer using ModFit LT software (Becton Dickinson).

WSU-DLCL2 = experiment: Cell cycle analysis; format: cell-based
Procedure: as §1

HUVEC = HUVEC proliferation; format: cell-based, human
[5] = PK profiles in male monkeys; format: in vivo, monkey; settings: for AUC(0-t) / Cmax: monkey, in vivo, po, male monkeys
[6] = cynomolgus monkey, plasma, 3 mg/kg, 3 mpk po

Cc1nc2cccc(N)c2c(=O)n1C1CCC(=O)NC1=O (stereo not shown) [compound of Formula I, 3-(5-amino-2-methyl-4-oxo-4H-quinazolin-3-yl)-piperidine-2,6-dione]
% Inhibition of HIF-1α protein expression (HIF-1α; 786-O (renal cancer)): 41.70%
% Inhibition of HIF-1α protein expression (HIF-1α; DU145 (prostate cancer)): 66.01%
% Inhibition of HIF-1α protein expression (HIF-1α; HCT15 (colorectal cancer)): 69.26%
% Inhibition of HIF-1α protein expression (HIF-1α; HCT116 (colorectal cancer)): 74.60%
% Inhibition of HIF-1α protein expression (HIF-1α; HT29 (colorectal cancer)): 78.54%
% Inhibition of HIF-1α protein expression (HIF-1α; MCF-7 (breast cancer)): 74.82%
% Inhibition of HIF-1α protein expression (HIF-1α; Miapaca-3 (pancreatic cancer)): 33.72%
% Inhibition of HIF-1α protein expression (HIF-1α; Ovcar-3 (ovarian cancer)): 63.39%
% Inhibition of HIF-1α protein expression (HIF-1α; Skov-3 (ovarian cancer)): 100.00%
% Inhibition of HIF-1α protein expression (HIF-1α; U87 (brain cancer)): 73.81%
F (Oral pharmacokinetics; 3 mpk po): 32%
AUC (Oral pharmacokinetics; [6]): 12000 ng·h/mL and 43 µM·h
Cmax (Oral pharmacokinetics; [6]): 3300 ng/mL and 11 µM
half-life (Oral pharmacokinetics; cynomolgus monkey, plasma, oral, 3 mpk): 5.8 h
clearance (Oral pharmacokinetics; cynomolgus monkey, plasma, read-out: CLp): 1.2 mL/min/kg
proliferation of CRBN-sensitive MM cell lines U266, 100-1 and 1K-2 [1]: inhibit the proliferation
half-life [2]: 3.83 h
pIC50 (HepG2): > 9.00
NOAEL at 7 days ([3]; oral, 7 consecutive days, male CD-IGS rat): 1000 mg/kg/day
exposure versus dose ([3]; rat): near dose proportional exposure increases
inhibition at 10 µM (HEP-G2): 6.9%
pIC50 (TNFα): 7.77
pIC50 (SF-539): 7.60
IL-5 production increase (T cells; 0.01 μM): 3 fold
IL-5 production increase (T cells; 0.1 μM): 4 fold
production of IL-2, IL-3, IL-5, IL-10, IL-15, GM-CSF, INF-γ, RANTES, and TNF-α (T cells; 0.01 to 10 μM): enhanced
IL-10 production (T cells; 1 and 10 μM): inhibited
pEC50 (T cells; Homo sapiens, T-cell, read-out: T cell IL-2 EC50): 7.85 to 7.92
IL-10 production enhancement (T cells; low concentrations (≦0.01 μM)): 2 fold
pIC50 ([4]; read-out: IC50 for inhibition of HGF-induced HUVEC invasion): 6.96
pIC50 ([4]; read-out: IC50 for inhibition of VEGF-induced HUVEC invasion): 9.54
pIC50 ([4]; read-out: IC50 for inhibition of bFGF-induced HUVEC invasion): 8.26
pEC50 (B cell): 7.82
G1 arrest (DoHH2): induced G1 arrest
G1 arrest (WSU-DLCL2): induced G1 arrest
HUVEC proliferation (HUVEC): did not inhibit
growth factor-induced HUVEC proliferation (HUVEC; growth factor-induced): either enhanced or did not inhibit
AUC(0-t) ([5]; 0.3 mg/kg): 1300 ng·h/mL and 4.5 µM·h
Cmax ([5]; 0.3 mg/kg): 100 ng/mL and 360 nM
AUC(0-t) ([5]; 3 mg/kg): 14000 ng·h/mL and 49 µM·h
Cmax ([5]; 3 mg/kg): 1100 ng/mL and 3.8 µM
AUC(0-t) ([5]; 10 mg/kg): 38000 ng·h/mL and 130 µM·h
Cmax ([5]; 10 mg/kg): 3100 ng/mL and 11 µM
AUC(0-t) ([5]; 30 mg/kg): 99000 ng·h/mL and 350 µM·h
Cmax ([5]; 30 mg/kg): 7700 ng/mL and 27 µM
Exposures (AUC(0-t)) versus dose ([5]; up to 30 mg/kg, male monkey): increased in a dose proportional manner
